These results are taken from patent US7091202B2, “4-arylspirocycloalkyl-2-aminopyrimidine carboxamide KCNQ potassium channel modulators” (Bristol-Myers Squibb Company, priority 2004, dated 2006).

For the first assay, the target named is T1, hQ23 (HEK-293 cell line stably transfected with one of the members of the KCNQ family) (Homo sapiens, UniProt O43525+O43526).
T1 construct: expressed in transfected cells; host or cells: HEK-293, stably transfected
T1 sequence (O43526 whole entry): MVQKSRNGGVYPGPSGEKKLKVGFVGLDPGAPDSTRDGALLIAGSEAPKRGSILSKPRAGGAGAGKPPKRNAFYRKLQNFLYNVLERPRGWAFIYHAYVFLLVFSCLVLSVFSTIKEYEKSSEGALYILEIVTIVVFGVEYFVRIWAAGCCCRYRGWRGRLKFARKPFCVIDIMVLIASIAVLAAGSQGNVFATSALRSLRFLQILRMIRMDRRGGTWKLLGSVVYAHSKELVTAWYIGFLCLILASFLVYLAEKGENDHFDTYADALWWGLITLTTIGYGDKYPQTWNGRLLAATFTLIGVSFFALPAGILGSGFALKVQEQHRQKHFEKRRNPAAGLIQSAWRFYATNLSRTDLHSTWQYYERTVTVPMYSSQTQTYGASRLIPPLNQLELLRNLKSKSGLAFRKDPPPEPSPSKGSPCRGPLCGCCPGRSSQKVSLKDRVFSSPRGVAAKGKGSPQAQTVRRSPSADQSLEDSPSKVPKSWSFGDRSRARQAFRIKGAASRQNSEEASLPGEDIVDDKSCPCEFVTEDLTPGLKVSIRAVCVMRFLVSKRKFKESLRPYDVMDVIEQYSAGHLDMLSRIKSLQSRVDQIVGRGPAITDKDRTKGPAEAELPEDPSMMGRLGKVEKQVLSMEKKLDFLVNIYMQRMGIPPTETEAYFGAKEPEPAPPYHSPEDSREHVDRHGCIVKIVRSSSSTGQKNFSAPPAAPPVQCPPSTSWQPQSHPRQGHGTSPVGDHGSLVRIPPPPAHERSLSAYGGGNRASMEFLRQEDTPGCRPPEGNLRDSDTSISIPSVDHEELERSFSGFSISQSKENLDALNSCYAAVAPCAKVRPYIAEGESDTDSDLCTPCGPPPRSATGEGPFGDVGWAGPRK
T1 sequence (O43525 whole entry): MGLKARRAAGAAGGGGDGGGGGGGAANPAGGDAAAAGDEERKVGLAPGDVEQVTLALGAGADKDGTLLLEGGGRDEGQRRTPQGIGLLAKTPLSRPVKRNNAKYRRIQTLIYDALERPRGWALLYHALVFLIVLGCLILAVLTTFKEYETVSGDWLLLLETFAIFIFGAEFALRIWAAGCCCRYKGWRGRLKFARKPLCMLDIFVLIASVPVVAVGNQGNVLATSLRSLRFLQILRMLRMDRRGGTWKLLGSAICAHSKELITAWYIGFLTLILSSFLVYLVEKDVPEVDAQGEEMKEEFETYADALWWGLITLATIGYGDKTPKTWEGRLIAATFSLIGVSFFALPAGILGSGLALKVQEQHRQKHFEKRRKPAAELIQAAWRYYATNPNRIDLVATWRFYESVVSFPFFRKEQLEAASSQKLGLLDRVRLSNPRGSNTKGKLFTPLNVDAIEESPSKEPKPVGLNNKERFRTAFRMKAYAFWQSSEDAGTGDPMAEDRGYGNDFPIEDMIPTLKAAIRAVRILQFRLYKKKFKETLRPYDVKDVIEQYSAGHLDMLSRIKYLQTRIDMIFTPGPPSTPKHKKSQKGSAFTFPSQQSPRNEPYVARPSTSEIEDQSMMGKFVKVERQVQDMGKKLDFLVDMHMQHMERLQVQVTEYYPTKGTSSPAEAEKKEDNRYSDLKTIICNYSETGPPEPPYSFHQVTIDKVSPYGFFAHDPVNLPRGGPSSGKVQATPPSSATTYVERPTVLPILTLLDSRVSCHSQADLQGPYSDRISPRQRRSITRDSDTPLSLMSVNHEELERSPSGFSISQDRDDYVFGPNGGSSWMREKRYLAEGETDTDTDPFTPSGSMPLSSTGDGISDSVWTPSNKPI
The experiment in a line: Thallium flux assay for KCNQ channel blockers (FLIPR, BTC dye). The conditions noted are these: Table 2; thallium flux, HEK-293. Type of assay: cell-based. In a few lines:
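HEK-293 cells stably expressing a KCNQ member, loaded with BTC-AM (2 μM) in chloride-free buffer, pH 7.3; compounds added at 1% DMSO, then Tl2SO4 stimulus on FLIPR (488/540 nm, 60 s). Minimal active concentration set at ≥4 SD above negative control; IC50 from 10-point 1:3 series, single-site logistic fit versus the positive-control blocker.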
`CCN(Cc1ccccc1)C(=O)c1cnc(NC2CCC(C)CC2)nc1C1(c2ccccc2)CC1` (stereo not drawn) [Example 29, 5-pyrimidinecarboxamide, N-ethyl-2-[(4-methylcyclohexyl)amino]-4-(1-phenylcyclopropyl)-N-(phenylmethyl)-]: the EC50 is 607 nM. Same read-out and setting: the same measure for `CC1CCCN(c2ncc(C(=O)NCc3ccc(Cl)cc3Cl)c(C3(c4ccccc4)CC3)n2)C1` (stereo not drawn) [Example 40, 5-pyrimidinecarboxamide, N-[(2,4-dichlorophenyl)methyl]-2-(3-methyl-1-piperidinyl)-4-(1-phenylcyclopropyl)-]: 326 nM; for `CC1CCCN(c2ncc(C(=O)N[C@H](C)c3cccc4ccccc34)c(C3(c4ccccc4)CC3)n2)C1` (stereo partly drawn) [Example 34, 5-pyrimidinecarboxamide, 2-(3-methyl-1-piperidinyl)-N-[(1R)-1-(1-naphthalenyl)ethyl]-4-(1-phenylcyclopropyl)-]: 107 nM; for `CC1CCCN(c2ncc(C(=O)NC(C)c3ccc(F)cc3)c(C3(c4ccccc4)CC3)n2)C1` (stereo not drawn) [Example 50, 5-pyrimidinecarboxamide, N-[1-(4-fluorophenyl)ethyl]-2-(3-methyl-1-piperidinyl)-4-(1-phenylcyclopropyl)-]: 673 nM.

As for `CC1CCCN(c2ncc(C(=O)NCc3cccc4ccccc34)c(C3(c4ccccc4)CC3)n2)C1` (stereo not drawn) [Example 37, 5-pyrimidinecarboxamide, 2-(3-methyl-1-piperidinyl)-N-(1-naphthalenylmethyl)-4-(1-phenylcyclopropyl)-], the EC50 amounted to 214 nM. Still for that read-out and setting: the result for `CC1CCN(c2ncc(C(=O)N[C@H](C)c3cccc4ccccc34)c(C3(c4ccccc4)CC3)n2)CC1` [Example 35, 5-pyrimidinecarboxamide, 2-(4-methyl-1-piperidinyl)-N-[(1R)-1-(1-naphthalenyl)ethyl]-4-(1-phenylcyclopropyl)-] reads 212 nM.

Still in this assay, the particulars now being: Table 3; thallium flux, HEK-293.
In turn, `CC1CCN(c2ncc(C(=O)NCc3ccc(Cl)cc3Cl)c(C3(c4ccc(Cl)cc4)CCC3)n2)CC1` [Example 64, 5-pyrimidinecarboxamide, 4-[1-(4-chlorophenyl)cyclobutyl]-N-[(2,4-dichlorophenyl)methyl]-2-(4-methyl-1-piperidinyl)-] yielded an EC50 of 34 nM.

Staying with this assay, now noted: hQ23 cells, thallium flux.
In the case of `CN(CCc1ccccc1)C(=O)c1cnc(NC2CCCC2)nc1C1(c2ccc(Cl)cc2)CCCC1` [Example 148, 5-pyrimidinecarboxamide, 4-[1-(4-chlorophenyl)cyclopentyl]-2-(cyclopentylamino)-N-methyl-N-(2-phenylethyl)-], the EC50 came out at 597 nM. Same read-out and setting: the result for `CCC(C)Nc1ncc(C(=O)NCc2cccc3ccccc23)c(C2(c3ccccc3)CCCC2)n1` (stereo not drawn) [Example 105, 5-pyrimidinecarboxamide, 2-[(1-methylpropyl)amino]-N-(1-naphthalenylmethyl)-4-(1-phenylcyclopentyl)-] reads 604 nM; that for `O=C(NCc1ccc2c(c1)OCO2)c1cnc(NC2CC2)nc1C1(c2ccc(Cl)cc2)CCCC1` [Example 150, 5-pyrimidinecarboxamide, N-(1,3-benzodioxol-5-ylmethyl)-4-[1-(4-chlorophenyl)cyclopentyl]-2-(cyclopropylamino)-], 717 nM. On the same count and under the same terms, the same measure for `CN1CCN(c2ncc(C(=O)NCc3ccc4c(c3)OCO4)c(C3(c4ccccc4)CCCC3)n2)CC1` [Example 91, 5-pyrimidinecarboxamide, N-(1,3-benzodioxol-5-ylmethyl)-2-(4-methyl-1-piperazinyl)-4-(1-phenylcyclopentyl)-]: 257 nM; for `CCC(C)Nc1ncc(C(=O)N(CC)C2CCCCC2)c(C2(c3ccc(Cl)cc3)CCCC2)n1` (stereo not drawn) [Example 143, 5-pyrimidinecarboxamide, 4-[1-(4-chlorophenyl)cyclopentyl]-N-cyclohexyl-N-ethyl-2-[(1-methylpropyl)amino]-]: 880 nM; for `CCC(C)Nc1ncc(C(=O)NC(C)c2ccc(F)cc2)c(C2(c3ccccc3)CCCC2)n1` (stereo not drawn) [Example 135, 5-pyrimidinecarboxamide, N-[1-(4-fluorophenyl)ethyl]-2-[(1-methylpropyl)amino]-4-(1-phenylcyclopentyl)-]: 29 nM. As to `CN(CCc1ccccc1)C(=O)c1cnc(NC2CC2)nc1C1(c2ccc(Cl)cc2)CCCC1` [Example 145, 5-pyrimidinecarboxamide, 4-[1-(4-chlorophenyl)cyclopentyl]-2-(cyclopropylamino)-N-methyl-N-(2-phenylethyl)-], the EC50 was found to be 895 nM. As for `CC1CCCN(c2ncc(C(=O)N(C)CCc3ccccc3)c(C3(c4ccc(F)cc4)CCCC3)n2)C1` (stereo not drawn) [Example 221, 5-pyrimidinecarboxamide, 4-[1-(4-fluorophenyl)cyclopentyl]-N-methyl-2-(3-methyl-1-piperidinyl)-N-(2-phenylethyl)-], it took 356 nM to reach a half-maximal effect (EC50).

On to `CC1CCCN(c2ncc(C(=O)NC(C)c3cccc4ccccc34)c(C3(c4ccccc4)CCCC3)n2)C1` (stereo not drawn) [Example 97, 5-pyrimidinecarboxamide, 2-(3-methyl-1-piperidinyl)-N-[1-(1-naphthalenyl)ethyl]-4-(1-phenylcyclopentyl)-], for which the EC50 stood at 19 nM.

The molecule `CCC(C)Nc1ncc(C(=O)N(CC)C2CCCCC2)c(C2(c3ccc(F)cc3)CCCC2)n1` (stereo not drawn) [Example 216, 5-pyrimidinecarboxamide, N-cyclohexyl-N-ethyl-4-[1-(4-fluorophenyl)cyclopentyl]-2-[(1-methylpropyl)amino]-] had an EC50 of 821 nM. The molecule `CN1CCC(N(C)c2ncc(C(=O)NCc3ccc(C(F)(F)F)cc3)c(C3(c4ccc(Cl)cc4)CCCC3)n2)CC1` [Example 204, 5-pyrimidinecarboxamide, 4-[1-(4-chlorophenyl)cyclopentyl]-2-[methyl(1-methyl-4-piperidinyl)amino]-N-[[4-(trifluoromethyl)phenyl]methyl]-] returned an EC50 of 400 nM. The same measure, in the same setting: the result for `O=C(c1cnc(NC2CCCC2)nc1C1(c2ccc(Cl)cc2)CCCC1)N1CCc2ccccc2C1` [Example 142, isoquinoline, 2-[[4-[1-(4-chlorophenyl)cyclopentyl]-2-(cyclopentylamino)-5-pyrimidinyl]carbonyl]-1,2,3,4-tetrahydro-] reads 535 nM; that for `CC(NC(=O)c1cnc(N2CCCC2)nc1C1(c2ccccc2)CCCC1)c1cccc2ccccc12` (stereo not drawn) [Example 96, 5-pyrimidinecarboxamide, N-[1-(1-naphthalenyl)ethyl]-4-(1-phenylcyclopentyl)-2-(1-pyrrolidinyl)-], 148 nM. On the same count and under the same terms, the result for `CCC(C)Nc1ncc(C(=O)NC(C)c2cccc3ccccc23)c(C2(c3ccccc3)CCCC2)n1` (stereo not drawn) [Example 99, 5-pyrimidinecarboxamide, 2-[(1-methylpropyl)amino]-N-[1-(1-naphthalenyl)ethyl]-4-(1-phenylcyclopentyl)-] reads 293 nM.

Regarding `O=C(NCc1cc(F)cc(C(F)(F)F)c1)c1cnc(NC2CCCC2)nc1C1(c2ccc(Cl)cc2)CCCC1` [Example 196, 5-pyrimidinecarboxamide, 4-[1-(4-chlorophenyl)cyclopentyl]-2-(cyclopentylamino)-N-[[3-fluoro-5-(trifluoromethyl)phenyl]methyl]-], the EC50 stood at 91 nM.

For the molecule `CCN(C(=O)c1cnc(N2CCCC(C)C2)nc1C1(c2ccc(F)cc2)CCCC1)C1CCCCC1` (stereo not drawn) [Example 214, 5-pyrimidinecarboxamide, N-cyclohexyl-N-ethyl-4-[1-(4-fluorophenyl)cyclopentyl]-2-(3-methyl-1-piperidinyl)-], the EC50 worked out at 575 nM. As to `CCN(Cc1ccccc1)C(=O)c1cnc(NC2CCC(C)CC2)nc1C1(c2ccccc2)CCCC1` (stereo not drawn) [Example 84, 5-pyrimidinecarboxamide, N-ethyl-2-[(4-methylcyclohexyl)amino]-4-(1-phenylcyclopentyl)-N-(phenylmethyl)-], the EC50 is 829 nM.

Still in this assay, the particulars now being: hQ23 cells, thallium flux assay.
In turn, `CC1CCCN(c2ncc(C(=O)NCc3cccc4ccccc34)c(C3(c4ccc(F)cc4)CCCC3)n2)C1` (stereo not drawn) [Example 250, 5-pyrimidinecarboxamide, 4-[1-(4-fluorophenyl)cyclopentyl]-2-(3-methyl-1-piperidinyl)-N-(1-naphthalenylmethyl)-] gave an EC50 of 10 nM. In turn, `CC1CCC(Nc2ncc(C(=O)NCc3ccc(F)cc3F)c(C3(c4ccc(F)cc4)CCCC3)n2)CC1` (stereo not drawn) [Example 267, 5-pyrimidinecarboxamide, N-[(2,4-difluorophenyl)methyl]-4-[1-(4-fluorophenyl)cyclopentyl]-2-[(4-methylcyclohexyl)amino]-] registered an EC50 of 48 nM. `CC1CCCN(c2ncc(C(=O)NCc3ccc4c(c3)OCO4)c(C3(c4ccc(F)cc4)CCCC3)n2)C1` (stereo not drawn) [Example 236, 5-pyrimidinecarboxamide, N-(1,3-benzodioxol-5-ylmethyl)-4-[1-(4-fluorophenyl)cyclopentyl]-2-(3-methyl-1-piperidinyl)-] had an EC50 of 39 nM.

As for `CCC(C)Nc1ncc(C(=O)NC(C)c2cccc3ccccc23)c(C2(c3ccc(F)cc3)CCCC2)n1` (stereo not drawn) [Example 246, 5-pyrimidinecarboxamide, 4-[1-(4-fluorophenyl)cyclopentyl]-2-[(1-methylpropyl)amino]-N-[1-(1-naphthalenyl)ethyl]-], the EC50 was found to be 177 nM. Still for that read-out and setting: the same measure for `O=C(NCc1cc(F)cc(C(F)(F)F)c1)c1cnc(N2CCCC2)nc1C1(c2ccc(F)cc2)CCCC1` [Example 275, 5-pyrimidinecarboxamide, 4-[1-(4-fluorophenyl)cyclopentyl]-N-[[3-fluoro-5-(trifluoromethyl)phenyl]methyl]-2-(1-pyrrolidinyl)-]: 24 nM; for `CC(NC(=O)c1cnc(N2CCCC2)nc1C1(c2ccc(F)cc2)CCCC1)c1cccc2ccccc12` (stereo not drawn) [Example 242, 5-pyrimidinecarboxamide, 4-[1-(4-fluorophenyl)cyclopentyl]-N-[1-(1-naphthalenyl)ethyl]-2-(1-pyrrolidinyl)-]: 34 nM.
